Experimental data: PubChem BioAssay AID330 (DTP/NCI, 2004)
“And” between values parts separate entries of the source, which are not always exact repeats. Equal values may be shown once. Inconclusive results and toxic doses are left out. The calls were made as follows: active = survival T/C of 150% or more; inactive = T/C below 125% in these data.

Tested on: P388 leukemia ip, CD2F1 mice, survival T/C
Assay: NCI In Vivo Anticancer Drug Screen. Data for tumor model P388 Leukemia (intraperitoneal) in CD2F1 (CDF1) mice
Details: endpoint: median survival time, higher = longer survival
Procedure, shortened: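 Mice carrying the transplanted tumor received test compound or vehicle. Survival was recorded in each group, and the value is the treated-group measurement divided by that of the vehicle-treated control group.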

[1] = dose: 50.0 mg/kg/injection, schedule: Q01DX005 (ip), vehicle: saline with Tween-80
[2] = dose: 100.0 mg/kg/injection, schedule: Q01DX005 (ip), vehicle: saline with Tween-80
[3] = dose: 100.0 mg/kg/injection, schedule: Q04DX003 (ip), vehicle: saline with Tween-80
[4] = dose: 200.0 mg/kg/injection, schedule: Q04DX003 (ip), vehicle: saline with Tween-80
[5] = dose: 50.0 mg/kg/injection, schedule: Q01DX005 (ip), vehicle: Klucel (hydroxypropylcellulose) (HPC)
[6] = dose: 100.0 mg/kg/injection, schedule: Q01DX005 (ip), vehicle: Klucel (hydroxypropylcellulose) (HPC)
[7] = dose: 60.0 mg/kg/injection, schedule: Q01DX005 (ip), vehicle: saline with Tween-80
[8] = dose: 120.0 mg/kg/injection, schedule: Q01DX005 (ip), vehicle: saline with Tween-80
[9] = dose: 200.0 mg/kg/injection, schedule: Q01DX005 (ip), vehicle: Klucel (hydroxypropylcellulose) (HPC)
[10] = dose: 200.0 mg/kg/injection, schedule: Q01DX005 (ip), vehicle: saline with Tween-80
[11] = dose: 60.0 mg/kg/injection, schedule: Q01DX005 (ip), vehicle: Klucel (hydroxypropylcellulose) (HPC)
[12] = dose: 120.0 mg/kg/injection, schedule: Q01DX005 (ip), vehicle: Klucel (hydroxypropylcellulose) (HPC)
[13] = dose: 240.0 mg/kg/injection, schedule: Q01DX005 (ip), vehicle: Klucel (hydroxypropylcellulose) (HPC)
[14] = dose: 50.0 mg/kg/injection, schedule: Q01DX009 (ip), vehicle: saline with Tween-80
[15] = dose: 100.0 mg/kg/injection, schedule: Q01DX009 (ip), vehicle: saline with Tween-80
[16] = dose: 200.0 mg/kg/injection, schedule: Q01DX009 (ip), vehicle: saline with Tween-80
[17] = dose: 50.0 mg/kg/injection, schedule: Q01DX009 (ip), vehicle: Klucel (hydroxypropylcellulose) (HPC)
[18] = dose: 100.0 mg/kg/injection, schedule: Q01DX009 (ip), vehicle: Klucel (hydroxypropylcellulose) (HPC)
[19] = dose: 200.0 mg/kg/injection, schedule: Q01DX009 (ip), vehicle: Klucel (hydroxypropylcellulose) (HPC)
[20] = dose: 25.0 mg/kg/injection, schedule: Q01DX005 (ip), vehicle: Klucel (hydroxypropylcellulose) (HPC)

Measured: T/C

C=C(C)C(=O)OC1C2C(=C)C(=O)OC2CC(C)C2OC2C(=O)C(C)(O)C1OC(=O)C(=C)C (stereo unspecified)
inactive: dose: 12.5 mg/kg/injection, schedule: Q04DX002 (ip), vehicle: Klucel (hydroxypropylcellulose) (HPC) 110 % of control | dose: 25.0 mg/kg/injection, schedule: Q04DX002 (ip), vehicle: Klucel (hydroxypropylcellulose) (HPC) 110 % of control | dose: 50.0 mg/kg/injection, schedule: Q04DX002 (ip), vehicle: Klucel (hydroxypropylcellulose) (HPC) 107 % of control

Cc1cc(NCCCCN2CCOCC2)nc2ccc3ccccc3c12
inactive: [1] 101 % of control | [2] 105 % of control

O=C(C1=Cc2ccccc2OC1)N1CCN(c2cccc(Cl)c2)CC1
inactive: [3] 98 % of control | [4] 102 % of control | dose: 400.0 mg/kg/injection, schedule: Q04DX003 (ip), vehicle: saline with Tween-80 93 % of control

CN1C(=O)CC(=O)N(c2ccccc2)c2cc(Cl)ccc21
inactive: [5] 103 % of control | [6] 97 % of control

CC1SC2(C(=O)Nc3ccc(Br)cc32)N(c2ccc(Cl)cc2)C1=O (stereo unspecified)
inactive: [7] 97 % of control | [8] 109 % of control | dose: 240.0 mg/kg/injection, schedule: Q01DX005 (ip), vehicle: saline with Tween-80 100 % of control

Cc1nc2c(Cl)cccc2c2ccccc12
inactive: [5] 88 % of control | [6] 92 % of control | [9] 88 % of control

CCOC(=O)C1C2(C)NC(=O)C1(Cc1ccccc1)c1ccc(O)cc1O2 (stereo unspecified)
inactive: [1] 95 % of control | [2] 96 % of control | [10] 95 % of control

C=C1C(O)CC2C(O)C3(C)CCC(C)(C)C3C12O (stereo unspecified)
inactive: dose: 18.75 mg/kg/injection, schedule: Q01DX009 (ip), vehicle: other 106 % of control | dose: 37.5 mg/kg/injection, schedule: Q01DX009 (ip), vehicle: other 98 % of control | dose: 75.0 mg/kg/injection, schedule: Q01DX009 (ip), vehicle: other 100 % of control | dose: 150.0 mg/kg/injection, schedule: Q01DX009 (ip), vehicle: other 93 % of control

CC1(C)OC(=O)N=C1c1cccc(Cl)c1
inactive: [11] 102 % of control | [12] 101 % of control | [13] 117 % of control

CN(N=O)C(=O)NCC1OC(OC2(CO)OC(CNC(=O)N(C)N=O)C(O)C2O)C(O)C(O)C1O (stereo unspecified)
inactive: dose: 50.0 mg/kg/injection, schedule: Q01DX009 (ip), vehicle: saline 103 % of control and 109 % of control and 120 % of control | dose: 100.0 mg/kg/injection, schedule: Q01DX009 (ip), vehicle: saline 112 % of control and 120 % of control | dose: 200.0 mg/kg/injection, schedule: Q01DX009 (ip), vehicle: saline 104 % of control

C=C1CC2(CCOc3ccccc32)OC1=O (stereo unspecified)
inactive: dose: 25.0 mg/kg/injection, schedule: Q04DX003 (ip), vehicle: saline with Tween-80 105 % of control | dose: 50.0 mg/kg/injection, schedule: Q04DX003 (ip), vehicle: saline with Tween-80 115 % of control | [3] 108 % of control and 117 % of control | [4] 90 % of control

Nc1nc(N)c2nc(/C(Cl)=N/O)cnc2n1
inactive: dose: 20.0 mg/kg/injection, schedule: Q01DX009 (ip), vehicle: saline 108 % of control | dose: 40.0 mg/kg/injection, schedule: Q01DX009 (ip), vehicle: saline 105 % of control | dose: 80.0 mg/kg/injection, schedule: Q01DX009 (ip), vehicle: saline 103 % of control

COc1cc(C(O)C2C(=O)OCC2C2(c3ccc4c(c3)OCO4)SCCCS2)cc(OC)c1OC (stereo unspecified)
inactive: [14] 107 % of control | dose: 100.0 mg/kg/injection, schedule: Q01DX001 (ip), vehicle: saline with Tween-80 109 % of control | [15] 115 % of control | dose: 200.0 mg/kg/injection, schedule: Q01DX001 (ip), vehicle: saline with Tween-80 104 % of control | [16] 108 % of control

CC1(CCl)Nc2ccccc2C(=O)N1c1ccccc1 (stereo unspecified)
inactive: [14] 99 % of control | [15] 97 % of control | [16] 88 % of control

O=C1/C(=C/c2ccccc2)CNC/C1=C\c1ccccc1
inactive: [11] 102 % of control | [12] 111 % of control | [13] 116 % of control

COc1ccc(C=NC#N)cc1
inactive: [17] 101 % of control | [18] 93 % of control | [19] 88 % of control

O=C(O)c1ccc(NC(=O)C(Cl)Cl)cc1
inactive: [5] 97 % of control | [6] 102 % of control | [9] 100 % of control

Cc1nn(-c2ccccc2)c(=O)n2c1nc1ccccc12
inactive: [11] 99 % of control | [12] 97 % of control | [13] 91 % of control

CCOC(=O)C(=O)Nc1ccccc1
inactive: [15] 99 % of control | [16] 97 % of control | dose: 400.0 mg/kg/injection, schedule: Q01DX009 (ip), vehicle: saline with Tween-80 99 % of control

CCN(CC)CCCC(C)Nc1ccc2ccc(Cl)cc2n1 (stereo unspecified)
inactive: dose: 50.0 mg/kg/injection, schedule: Q01DX005 (ip), vehicle: saline + Tween-80 + alcohol 101 % of control | dose: 100.0 mg/kg/injection, schedule: Q01DX005 (ip), vehicle: saline + Tween-80 + alcohol 101 % of control | dose: 200.0 mg/kg/injection, schedule: Q01DX005 (ip), vehicle: saline + Tween-80 + alcohol 100 % of control

N#CC(c1cc2c(cc1Br)OCO2)N1CCCC1 (stereo unspecified)
inactive: dose: 100.0 mg/kg/injection, schedule: Q01DX001 (ip), vehicle: Klucel (hydroxypropylcellulose) (HPC) 100 % of control | dose: 200.0 mg/kg/injection, schedule: Q01DX001 (ip), vehicle: Klucel (hydroxypropylcellulose) (HPC) 101 % of control | dose: 400.0 mg/kg/injection, schedule: Q01DX001 (ip), vehicle: Klucel (hydroxypropylcellulose) (HPC) 99 % of control

CN1C(=O)N(C)C2CC(=O)c3c(ccc4c3ncn4C)N2C1=O (stereo unspecified)
inactive: [11] 104 % of control | [12] 108 % of control | [13] 114 % of control

c1ccc2nc3ccccc3nc2c1
inactive: [20] 109 % of control | [5] 104 % of control | [6] 104 % of control | [9] 104 % of control

N#CC(C(N)=O)C1(C(C#N)C(N)=O)C(=O)Nc2ccccc21 (stereo unspecified)
inactive: [20] 103 % of control | [5] 100 % of control | [6] 98 % of control | [9] 100 % of control

O=CNc1cc(NC=O)ncn1
inactive: dose: 15.0 mg/kg/injection, schedule: Q01DX009 (ip), vehicle: saline with Tween-80 99 % of control | dose: 30.0 mg/kg/injection, schedule: Q01DX009 (ip), vehicle: saline with Tween-80 97 % of control | dose: 60.0 mg/kg/injection, schedule: Q01DX009 (ip), vehicle: saline with Tween-80 103 % of control

[N-]=[N+]=Nc1c2c(nc3ccccc13)CCCC2
inactive: [7] 103 % of control | [8] 105 % of control

Cc1cc(C)cc(N=Cc2ccc(C=Nc3cc(C)cc(C)c3)cc2)c1
inactive: [17] 92 % of control | [18] 95 % of control | [19] 100 % of control

C/C(=N\N)c1nc2ccccc2[nH]1
inactive: dose: 15.0 mg/kg/injection, schedule: Q01DX005 (ip), vehicle: saline with Tween-80 101 % of control | dose: 30.0 mg/kg/injection, schedule: Q01DX005 (ip), vehicle: saline with Tween-80 101 % of control | [11] 100 % of control | [7] 108 % of control

CCN(CC)CCCC(C)N1CC2CCCCC2C1 (stereo unspecified)
inactive: [1] 106 % of control | [2] 108 % of control | [10] 107 % of control

S=C(N/N=C/c1c[nH]c2ccccc12)NC12CC3CC(CC(C3)C1)C2
inactive: [7] 101 % of control | [8] 90 % of control

CCc1c(-c2ccccc2)n[nH]c1-c1[nH]nc(-c2ccccc2)c1CC
inactive: [11] 96 % of control | [12] 96 % of control | [13] 96 % of control

c1ccc(Sc2c(-c3ccccc3)c(-c3ccccc3)c3n2CCC3)cc1
inactive: [11] 86 % of control | [12] 86 % of control

C=C(C)[C@@H]1CC[C@]2(C(=O)O)CC[C@@]3(C)[C@]4(C)CC[C@@H]5[C@](C)(CC[C@@H](O)[C@@]5(C)C(=O)O)[C@H]4CC[C@]3(C)[C@@H]12
inactive: dose: 15.0 mg/kg/injection, schedule: Q01DX005 (ip), vehicle: Klucel (hydroxypropylcellulose) (HPC) 104 % of control | dose: 30.0 mg/kg/injection, schedule: Q01DX005 (ip), vehicle: Klucel (hydroxypropylcellulose) (HPC) 117 % of control | [11] 117 % of control
